Source: PMC6320249 (ACS chemical biology, 2015)

Tests used:
p300 = molecular target: T1, p300 (Homo sapiens, UniProt Q09472); test: Microfluidic mobility shift KAT assay, p300 with FITC-H4; assay type: biochemical
T1 sequence (Q09472 1195-1662): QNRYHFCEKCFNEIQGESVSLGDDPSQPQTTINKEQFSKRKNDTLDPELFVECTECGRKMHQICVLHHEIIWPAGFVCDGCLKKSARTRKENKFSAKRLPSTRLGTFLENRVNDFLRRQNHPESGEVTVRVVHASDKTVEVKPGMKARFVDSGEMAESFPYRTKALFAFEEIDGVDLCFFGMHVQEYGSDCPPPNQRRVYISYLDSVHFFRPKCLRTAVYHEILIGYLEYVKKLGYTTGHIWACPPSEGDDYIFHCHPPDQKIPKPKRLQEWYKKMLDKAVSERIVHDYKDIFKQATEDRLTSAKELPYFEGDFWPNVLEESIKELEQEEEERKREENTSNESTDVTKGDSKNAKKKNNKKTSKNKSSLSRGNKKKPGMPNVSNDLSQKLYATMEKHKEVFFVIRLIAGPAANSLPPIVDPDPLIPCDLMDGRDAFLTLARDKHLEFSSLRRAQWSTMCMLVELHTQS

Gcn5 [1] = molecular target: T2, Gcn5 (Homo sapiens, UniProt Q92830); test: Microfluidic mobility shift KAT assay, Gcn5 with FITC-H3; assay type: biochemical; conditions: for inhibition of Gcn5 in pilot screen: acetyl-CoA 1 μM, unicate, hydroxylamine quench; for detergent sensitivity of Gcn5 inhibition: low (0.01%) compared to high (0.05%) Triton-X
T2 sequence (Q92830 497-662): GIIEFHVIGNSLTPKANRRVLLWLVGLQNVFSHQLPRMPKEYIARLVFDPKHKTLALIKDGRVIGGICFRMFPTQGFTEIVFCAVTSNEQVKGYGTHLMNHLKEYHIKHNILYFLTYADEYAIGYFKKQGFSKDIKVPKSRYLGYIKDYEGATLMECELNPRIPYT

Gcn5 [2] = molecular target: T2, Gcn5; test: Real-time kinetic monitoring of Gcn5-catalyzed acetylation; assay type: biochemical; conditions: first 25 min vs last 25 min of 100 min; uninhibited enzyme = 1
cell viability = test: Cell viability / toxicity; assay type: cell-based; conditions: at concentrations of ~60 μM
HepG2 cells = test: Effect of garcinol on acetylation in HepG2 cells; assay type: cell-based

Row | Structure (SMILES) | inhibition of Gcn5 in pilot screen (Gcn5 [1]; compound 40 μM) | time dependence value (ratio of acetylation rates at early/late intervals) (Gcn5 [2]) | effect on p300 in pilot screen (in words) (p300; compound 40 μM) | detergent sensitivity of Gcn5 inhibition (Gcn5 [1]) | further results
1 | CC(=O)N[C@@H](CCCCNC(=O)CSCCNC(=O)CCNC(=O)[C@H](O)C(C)(C)COP(=O)(O)OP(=O)(O)OC[C@H]1O[C@@H](n2cnc3c(N)ncnc32)[C@H](O)[C@@H]1OP(=O)(O)O)C(N)=O [Lys-CoA] | greater than 40% | – | – | – | inhibition of p300 in pilot screen (p300; compound 40 μM, acetyl-CoA 1 μM, unicate, hydroxylamine quench): greater than 40%; p300 versus Gcn5 selectivity in pilot screen (in words) (p300; compound 40 μM, p300 compared to Gcn5): inhibited p300 considerably more strongly than Gcn5
2 | CCCCCCCc1ccc(CCc2cccc(O)c2C(=O)O)cc1 [MG-149] | greater than 40% | – | – | – | –
3 | C=C(C)[C@@H](CC=C(C)C)C[C@@]12C[C@@H](CC=C(C)C)C(C)(C)[C@@](CC=C(C)C)(C(=O)C(C(=O)c3ccc(O)c(O)c3)=C1O)C2=O [garcinol] | – | > 1 | Selective inhibition of p300 | significantly greater inhibitory activity | detergent sensitivity of p300 inhibition (p300; low (0.01%) compared to high (0.05%) Triton-X): significantly greater inhibitory activity; toxicity (cell viability): toxic; effect on Gcn5 in pilot screen (in words) (Gcn5 [1]; compound 40 μM): did not manifest as a Gcn5 hit; lowest concentration with effects on acetylation (HepG2 cells): ~ 25 μM
4 | Cc1cc2c(C(C)C)c(O)c(O)c(C=O)c2c(O)c1-c1c(C)cc2c(C(C)C)c(O)c(O)c(C=O)c2c1O [gossypol] | – | > 1 | – | detergent-sensitive inhibition | inhibition at 40 µM (Gcn5 [1]; read-out: inhibition of Gcn5 in pilot screen): > 40%
5 | O=C1c2c(O)ccc(O)c2C(=O)c2c(NCCNCCO)ccc(NCCNCCO)c21 [mitoxantrone] | – | – | selective p300 activation | – | –
